Test results: US10851067B2, “Kv7 channel activators compositions and methods of use” (Knopp Biosciences LLC, priority 2018, dated 2020)

Target: T1, Kv7.2/7.3 (Homo sapiens, UniProt O43525+O43526)
Test: Kv7.2/7.3 Thallium Flux Assay
Assay type: cell-based
Design: host or cells: HEK cells, tetracycline-inducible expression
Conditions: read-out: Kv7.2/7.3 Activity: EC50 of Kv7.2/Kv7.3 activation
Source text: The Thallium Flux Assay is used as a surrogate indicator of potassium channel activity.
The experimental protocol was adapted from the FluxOR™ II Green Potassium Ion Channel Assay User Guide (Pub. No. MAN0016084, Invitrogen). Conditions were optimized for the Kv7.2/7.3 cell line.
The hKV7.2/7.3 cell line was obtained from Chantest (Cleveland, Ohio 44128) cat. #CT6147.
Kv7.2/7.3 cells were maintained in a media containing DMEM/F12; 50/50 (GIBCO cat. #11330), 10% Fetal Bovine Serum (FBS) (GIBCO cat. #26140), 100 units/mL Penicillin-Streptomycin (GIBCO cat. #15140), 0.005 mg/ml Blasticidin (SIGMA 15205), 0.5 mg/mL Geneticin (GIBCO cat. #10131), and 0.1 mg/mL Zeocin (GIBCO cat. #R25001). One day prior to experimentation, cells were plated in 96 well clear bottom plates (Corning cat. #353219) in a media without Blasticidin, Geneticin, or Zeocin. Channel expression was induced by adding tetracycline (Bioline cat. #BIO87030) at a final concentration of 10 ng/mL.
The test compound is diluted in a mixture of 0.1% DMSO/extracellular solution with an eight-point concentration range from 0.014 μM to 30 μM. Serial dilutions were made on a Biomek NXP (BECKMAN COULTER).
Measurement and Data Analysis:
A plate reader (Enspire, Perkin Elmer) is used to characterize the ion-channel modulating properties of novel compounds using an excitation wavelength of 475 nm and an emission wavelength of 530 nm. After a 15 sec baseline measurement, the stimulus buffer containing thallium and potassium is injected. A final endpoint measure is taken after 90 sec. Responses are normalized to positive control (retigabine, 30 µM max). Mean normalized responses at each concentration tested are fit to the standard Hill equation to generate an EC50 and maximal response.

Row | Structure (SMILES) | EC50 [nM]
1 | CC(C)(CC(=O)Nc1nc2cc(F)c(F)cc2n1C1(C)CCC1)C(F)F [Example 533, N-(5,6-difluoro-1-(1-methylcyclobutyl)-1H-benzo[d]imidazol-2-yl)-4,4-difluoro-3,3-dimethylbutanamide] | < 1000
2 | CC(C)(CC(=O)Nc1nc2cc(F)ccc2n1C1(C)CCC1)C(F)F [Example 524, 4,4-difluoro-N-(5-fluoro-1-(1-methylcyclobutyl)-1H-benzo[d]imidazol-2-yl)-3,3-dimethylbutanamide] | < 1000
3 | COc1cc(C#N)cc2c1nc(NC(=O)C13CCC(C1)C3)n2C(C)(C)C [Example 510, N-(1-(tert-butyl)-6-cyano-4-methoxy-1H-benzo[d]imidazol-2-yl)bicyclo[2.1.1]hexane-1-carboxamide] | 1000 to 3000
4 | CC1(n2c(NC(=O)CC3CC(F)(F)C3(F)F)nc3cc(F)cc(F)c32)CCC1 (single isomer, unassigned) [Example 523, N-(5,7-difluoro-1-(1-methylcyclobutyl)-1H-benzo[d]imidazol-2-yl)-2-(2,2,3,3-tetrafluorocyclobutyl)acetamide] | < 1000
5 | CC1(n2c(NC(=O)CC3(C(F)(F)F)CC3)nc3cc(F)ccc32)CCC1 [Example 527, N-(5-fluoro-1-(1-methylcyclobutyl)-1H-benzo[d]imidazol-2-yl)-2-(1-(trifluoromethyl)cyclopropyl)acetamide] | < 1000
6 | CC(C)(C)n1c(NC(=O)CC2CC(F)(F)C2(F)F)nc2cc(F)c(Cl)cc21 (single isomer, unassigned) [Example 535, N-(1-(tert-butyl)-6-chloro-5-fluoro-1H-benzo[d]imidazol-2-yl)-2-(2,2,3,3-tetrafluorocyclobutyl)acetamide] | < 1000
7 | CC1(n2c(NC(=O)CC3CC(F)(F)C3(F)F)nc3cc(F)ccc32)CCC1 (single isomer, unassigned) [Example 526, N-(5-fluoro-1-(1-methylcyclobutyl)-1H-benzo[d]imidazol-2-yl)-2-(2,2,3,3-tetrafluorocyclobutyl)acetamide] | < 1000
8 | CC1(n2c(NC(=O)CC3(C(F)(F)F)CC3)nc3cc(F)cc(F)c32)CCC1 [Example 522, N-(5,7-difluoro-1-(1-methylcyclobutyl)-1H-benzo[d]imidazol-2-yl)-2-(1-(trifluoromethyl)cyclopropyl)acetamide] | < 1000
9 | CC1(n2c(NC(=O)CC3CC(F)(F)C3(F)F)nc3c(F)cc(C#N)c(F)c32)CCC1 (single isomer, unassigned) [Example 542, N-(6-cyano-4,7-difluoro-1-(1-methylcyclobutyl)-1H-benzo[d]imidazol-2-yl)-2-(2,2,3,3-tetrafluorocyclobutyl)acetamide] | < 1000
10 | CC(C)(C)CC(=O)Nc1nc2ccc(C3(O)CCC3)c(OC(F)(F)F)c2n1C1CCC1 [Example 487, N-(1-cyclobutyl-6-(1-hydroxycyclobutyl)-7-(trifluoromethoxy)-1H-benzo[d]imidazol-2-yl)-3,3-dimethylbutanamide] | < 1000
11 | CC1(n2c(NC(=O)CC3CC(F)(F)C3(F)F)nc3ccc(F)c(C#N)c32)CCC1 (single isomer, unassigned) [Example 537, N-(7-cyano-6-fluoro-1-(1-methylcyclobutyl)-1H-benzo[d]imidazol-2-yl)-2-(2,2,3,3-tetrafluorocyclobutyl)acetamide] | < 1000
12 | CC1(n2c(NC(=O)CC3CC(F)(F)C3(F)F)nc3cc(F)c(F)cc32)CCC1 (single isomer, unassigned) [Example 499, N-(5,6-difluoro-1-(1-methylcyclobutyl)-1H-benzo[d]imidazol-2-yl)-2-(2,2,3,3-tetrafluorocyclobutyl)acetamide] | < 1000

Target: T1, Kv7.2/7.3
Test: Kv7.2/7.3 Activation Assay, QPatch single concentration screen
Assay type: cell-based
Design: host or cells: HEK cells, tetracycline-inducible expression; key: 1.2-2.9 (+); 3-3.9 (++); >4 (+++) fold increase over baseline; O represents open channel at holding potential
Conditions: Kv7.2/Kv7.3 co-expressing HEK cells, compound concentration 3 μM, steady-state current at end of 2 s pulse to −30 mV
Outline: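 Tetracycline-induced HEK cells expressing human Kv7.2/7.3, recorded 24 h post-induction by automated planar patch clamp. From −80 mV, 2 s steps to −30 mV then 100 ms to −120 mV; compound tested at 3 μM (0.1% DMSO). Steady-state current at end of −30 mV step gives fold increase over baseline.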

Row | Structure (SMILES) | Kv7.2/7.3 Activity: increase over baseline in current
13 | COc1cc(Br)cc2c1nc(NC(=O)CC(C)(C)C)n2C1(C)CCC1 [Example 392, N-(6-bromo-4-methoxy-1-(1-methylcyclobutyl)-1H-benzo[d]imidazol-2-yl)-3,3-dimethylbutanamide] | +++ (>4 (+++) fold increase over baseline)
14 | CC(C)(C)CC(=O)Nc1nc2c(F)cc(C#N)cc2n1C1CCC1 [Example 411, N-(6-cyano-1-cyclobutyl-4-fluoro-1H-benzo[d]imidazol-2-yl)-3,3-dimethylbutanamide] | +++ (>4 (+++) fold increase over baseline)
15 | CC(O)(CC(=O)Nc1nc2cccc(C#N)c2n1C1(C)CCC1)c1ccccc1 (single isomer, unassigned) [Example 468, N-(7-cyano-1-(1-methylcyclobutyl)-1H-benzo[d]imidazol-2-yl)-3-hydroxy-3-phenylbutanamide] | + (1.2-2.9 (+))
16 | CC(C)(C)CC(=O)Nc1nc2ccc(C(C)(C)O)c(F)c2n1C1(C)CCC1 [Example 481, N-(7-fluoro-6-(2-hydroxypropan-2-yl)-1-(1-methylcyclobutyl)-1H-benzo[d]imidazol-2-yl)-3,3-dimethylbutanamide] | O
17 | C[C@@H](CC(=O)Nc1nc2ccc(C(C)(C)O)cc2n1C1CCC1)c1ccccc1 [Example 369, (S)-N-(1-cyclobutyl-6-(2-hydroxypropan-2-yl)-1H-benzo[d]imidazol-2-yl)-3-phenylbutanamide] | O
18 | CC(C)(CC(=O)Nc1nc2cc(F)c(OC(F)F)cc2n1C1CCC1)C1CC1 [Example 363, N-(1-cyclobutyl-6-(difluoromethoxy)-5-fluoro-1H-benzo[d]imidazol-2-yl)-3-cyclopropyl-3-methylbutanamide] | + (1.2-2.9 (+))
19 | COc1cc(Br)cc2c1nc(NC(=O)CC(C)(C)C)n2C1CCC1 [Example 382, N-(6-bromo-1-cyclobutyl-4-methoxy-1H-benzo[d]imidazol-2-yl)-3,3-dimethylbutanamide] | +++ (>4 (+++) fold increase over baseline)
20 | CC(O)(CC(=O)Nc1nc2cc(F)c(C#N)cc2n1C1CCC1)c1ccccc1 (single isomer, unassigned) [Example 350, N-(6-cyano-1-cyclobutyl-5-fluoro-1H-benzo[d]imidazol-2-yl)-3-hydroxy-3-phenylbutanamide] | + (1.2-2.9 (+))
21 | CC(C)(O)CC(=O)Nc1nc2ccc(OC(F)F)c(F)c2n1C1(C)CCC1 [Example 351, N-(6-(difluoromethoxy)-7-fluoro-1-(1-methylcyclobutyl)-1H-benzo[d]imidazol-2-yl)-3-hydroxy-3-methylbutanamide] | + (1.2-2.9 (+))
22 | CC(C)(O)c1ccc2nc(NC(=O)CC3CC(F)(F)C3(F)F)n(C3CCC3)c2c1 (single isomer, unassigned) [Example 446, N-(1-cyclobutyl-6-(2-hydroxypropan-2-yl)-1H-benzo[d]imidazol-2-yl)-2-(2,2,3,3-tetrafluorocyclobutyl)acetamide] | ++ (3-3.9 (++))
23 | CC(C)(CC(=O)Nc1nc2cc(F)cc(F)c2n1C1CCC1)C(F)(F)F [Example 453, N-(1-cyclobutyl-5,7-difluoro-1H-benzo[d]imidazol-2-yl)-4,4,4-trifluoro-3,3-dimethylbutanamide] | ++ (3-3.9 (++))
24 | COc1c(Cl)c(Cl)c(Cl)c2nc(NC(=O)CC(C)(C)C)n(C3CCC3)c12 [Example 414, 3,3-dimethyl-N-(4,5,6-trichloro-1-cyclobutyl-7-methoxy-1H-benzo[d]imidazol-2-yl)butanamide] | ++ (3-3.9 (++))
25 | CC(C)(CC(=O)Nc1nc2c(F)cc(C#N)cc2n1C12CC(C1)C2)C(F)(F)F [Example 431, N-(1-(bicyclo[1.1.1]pentan-1-yl)-6-cyano-4-fluoro-1H-benzo[d]imidazol-2-yl)-4,4,4-trifluoro-3,3-dimethylbutanamide] | ++ (3-3.9 (++))
26 | CC(C)(CC(=O)Nc1nc2c(F)cc(OC(F)F)cc2n1C1(C)CCC1)C1CC1 [Example 338, 3-cyclopropyl-N-(6-(difluoromethoxy)-4-fluoro-1-(1-methylcyclobutyl)-1H-benzo[d]imidazol-2-yl)-3-methylbutanamide] | +++ (>4 (+++) fold increase over baseline)
